PubChem BioAssay AID248 (DTP/NCI, 2004)
Toxic doses and inconclusive results are not listed. Rule as the data show it: active = T/C of 150% or more; inactive = T/C below 125%.

Test system: L1210 leukemia ip in BDF1 mice, survival T/C
Test: NCI In Vivo Anticancer Drug Screen. Data for tumor model L1210 Leukemia (intraperitoneal) in B6D2F1 (BDF1) mice
Conditions: endpoint: mean survival time, higher = longer survival
Outline: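 Tumor was transplanted into mice, which were then dosed with test compound or vehicle alone. Survival was recorded for each group, and the treated figure was expressed relative to the control figure.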

[1] = dose: 100.0 mg/kg/injection, schedule: Q01DX009 (ip), vehicle: saline
[2] = dose: 200.0 mg/kg/injection, schedule: Q01DX009 (ip), vehicle: saline
[3] = dose: 100.0 mg/kg/injection, schedule: Q04DX003 (ip), vehicle: saline with Tween-80
[4] = dose: 100.0 mg/kg/injection, schedule: Q01DX009 (ip), vehicle: saline with Tween-80
[5] = dose: 200.0 mg/kg/injection, schedule: Q01DX009 (ip), vehicle: saline with Tween-80

Measured: T/C

[Cl][Cu][Cl]
inactive: dose: 3.13 mg/kg/injection, schedule: Q01DX009 (ip), vehicle: saline 100 % of control | dose: 6.25 mg/kg/injection, schedule: Q01DX009 (ip), vehicle: saline 95 % of control | dose: 6.25 mg/kg/injection, schedule: Q04DX003 (ip), vehicle: saline 102 % of control | dose: 12.5 mg/kg/injection, schedule: Q01DX009 (ip), vehicle: saline 90 % of control | dose: 12.5 mg/kg/injection, schedule: Q04DX003 (ip), vehicle: saline 107 % of control

CC(=O)CCCc1ccccc1
inactive: [1] 92 % of control | dose: 100.0 mg/kg/injection, schedule: Q04DX003 (ip), vehicle: saline 100 % of control | [2] 98 % of control | dose: 200.0 mg/kg/injection, schedule: Q04DX003 (ip), vehicle: saline 100 % of control | dose: 400.0 mg/kg/injection, schedule: Q01DX009 (ip), vehicle: saline 104 % of control

CCOc1cccc2c(=O)c(C(=O)O)cn(CC)c12
inactive: dose: 100.0 mg/kg/injection, schedule: Q04DX002 (ip), vehicle: Klucel (hydroxypropylcellulose) (HPC) 93 % of control | dose: 200.0 mg/kg/injection, schedule: Q04DX002 (ip), vehicle: Klucel (hydroxypropylcellulose) (HPC) 107 % of control | dose: 400.0 mg/kg/injection, schedule: Q04DX002 (ip), vehicle: Klucel (hydroxypropylcellulose) (HPC) 104 % of control

COc1ccccc1CN1CCCN(Cc2ccccc2OC)C1c1cc(Br)c(OC)c(OC)c1
inactive: dose: 100.0 mg/kg/injection, schedule: Q01DX001 (ip), vehicle: carboxymethylcellulose (CMC) 91 % of control | dose: 200.0 mg/kg/injection, schedule: Q01DX001 (ip), vehicle: carboxymethylcellulose (CMC) 91 % of control | dose: 400.0 mg/kg/injection, schedule: Q01DX001 (ip), vehicle: carboxymethylcellulose (CMC) 87 % of control

CNC(=O)OCC1=C(OC)C(=O)C(OC)=CC1=O
inactive: dose: 12.5 mg/kg/injection, schedule: Q01DX009 (ip), vehicle: other 90 % of control | dose: 12.5 mg/kg/injection, schedule: Q04DX003 (ip), vehicle: other 97 % of control | dose: 25.0 mg/kg/injection, schedule: Q01DX009 (ip), vehicle: other 92 % of control | dose: 25.0 mg/kg/injection, schedule: Q04DX003 (ip), vehicle: other 96 % of control | dose: 50.0 mg/kg/injection, schedule: Q01DX009 (ip), vehicle: other 90 % of control | dose: 50.0 mg/kg/injection, schedule: Q04DX003 (ip), vehicle: other 100 % of control

CSC(SC)C(O)C(O)C(O)C(O)CO (stereo not drawn)
inactive: dose: 50.0 mg/kg/injection, schedule: Q04DX002 (ip), vehicle: saline 103 % of control | dose: 100.0 mg/kg/injection, schedule: Q04DX002 (ip), vehicle: saline 113 % of control | dose: 200.0 mg/kg/injection, schedule: Q04DX002 (ip), vehicle: saline 92 % of control

O=C(O)c1cc(=O)cc(C(=O)O)o1
inactive: [3] 95 % of control

O=C1C=CC(=O)N1c1ccc(Br)cc1Cl
inactive: dose: 0.78 mg/kg/injection, schedule: Q04DX003 (ip), vehicle: saline 91 % of control | dose: 1.0 mg/kg/injection, schedule: Q01DX009 (ip), vehicle: saline 101 % of control | dose: 1.56 mg/kg/injection, schedule: Q04DX003 (ip), vehicle: saline 93 % of control | dose: 2.0 mg/kg/injection, schedule: Q01DX009 (ip), vehicle: saline 110 % of control | dose: 3.13 mg/kg/injection, schedule: Q04DX003 (ip), vehicle: saline 106 % of control | dose: 4.0 mg/kg/injection, schedule: Q01DX009 (ip), vehicle: saline 89 % of control | dose: 25.0 mg/kg/injection, schedule: Q04DX003 (ip), vehicle: saline with Tween-80 100 % of control | dose: 100.0 mg/kg/injection, schedule: Q04DX003 (ip), vehicle: Klucel (hydroxypropylcellulose) (HPC) 93 % of control

O=P(Oc1ccccc1)(Oc1ccccc1)C(Nc1ccccc1)c1cccnc1 (stereo not drawn)
inactive: [3] 89 % of control | dose: 200.0 mg/kg/injection, schedule: Q04DX003 (ip), vehicle: saline with Tween-80 103 % of control

CCOC(=O)COC(CN)C(Cl)(Cl)Cl (stereo not drawn)
inactive: dose: 50.0 mg/kg/injection, schedule: Q01DX009 (ip), vehicle: saline with Tween-80 93 % of control | [4] 90 % of control | [5] 90 % of control

O=C1NCCS1
inactive: dose: 50.0 mg/kg/injection, schedule: Q01DX009 (ip), vehicle: saline 107 % of control | [4] 107 % of control | [1] 92 % of control | dose: 100.0 mg/kg/injection, schedule: Q04DX003 (ip), vehicle: saline sonified 102 % of control | [5] 107 % of control | [2] 115 % of control | dose: 200.0 mg/kg/injection, schedule: Q04DX003 (ip), vehicle: saline sonified 100 % of control | dose: 400.0 mg/kg/injection, schedule: Q01DX009 (ip), vehicle: saline with Tween-80 96 % of control | dose: 400.0 mg/kg/injection, schedule: Q04DX003 (ip), vehicle: saline sonified 106 % of control
